# Measured values taken from US20260306641A1, “HELICASE DEGRADERS” (priority 2023, published 2026).
# Read-outs that look alike come from different tables or passages of the source.
# Legend:
# [1] = test system: Cdk1 and Cdk2 targets (Rb, Cdc6, PP1a); experiment: Immunoblot of Cdk1/Cdk2-dependent targets, HaCaT cells; format: cell-based, human; settings: extended exposure (18 hrs)
# Procedure: Immunoblots of total proteins from synchronized HaCaT cells treated with compounds at time of release (0 hr; beginning of G1 phase) and collected after 18 hrs of exposure. (FIG. 5A) DDK-dependent phosphorylation sites on Mcm2 were analyzed with phospho-specific antibodies. (FIG. 5B) Cdk1- and Cdk2-dependent targets (Rb, Cdc6, and PP1α) were analyzed with phospho-specific antibodies.
# [2] = test system: T1, human CMG helicase (hCMG); settings: role: substrate, cited from earlier work
# T1 construct: made in house; host or cells: High Five insect cells, baculovirus (11 viruses co-infected)
# T1 sequence (P49736 whole entry): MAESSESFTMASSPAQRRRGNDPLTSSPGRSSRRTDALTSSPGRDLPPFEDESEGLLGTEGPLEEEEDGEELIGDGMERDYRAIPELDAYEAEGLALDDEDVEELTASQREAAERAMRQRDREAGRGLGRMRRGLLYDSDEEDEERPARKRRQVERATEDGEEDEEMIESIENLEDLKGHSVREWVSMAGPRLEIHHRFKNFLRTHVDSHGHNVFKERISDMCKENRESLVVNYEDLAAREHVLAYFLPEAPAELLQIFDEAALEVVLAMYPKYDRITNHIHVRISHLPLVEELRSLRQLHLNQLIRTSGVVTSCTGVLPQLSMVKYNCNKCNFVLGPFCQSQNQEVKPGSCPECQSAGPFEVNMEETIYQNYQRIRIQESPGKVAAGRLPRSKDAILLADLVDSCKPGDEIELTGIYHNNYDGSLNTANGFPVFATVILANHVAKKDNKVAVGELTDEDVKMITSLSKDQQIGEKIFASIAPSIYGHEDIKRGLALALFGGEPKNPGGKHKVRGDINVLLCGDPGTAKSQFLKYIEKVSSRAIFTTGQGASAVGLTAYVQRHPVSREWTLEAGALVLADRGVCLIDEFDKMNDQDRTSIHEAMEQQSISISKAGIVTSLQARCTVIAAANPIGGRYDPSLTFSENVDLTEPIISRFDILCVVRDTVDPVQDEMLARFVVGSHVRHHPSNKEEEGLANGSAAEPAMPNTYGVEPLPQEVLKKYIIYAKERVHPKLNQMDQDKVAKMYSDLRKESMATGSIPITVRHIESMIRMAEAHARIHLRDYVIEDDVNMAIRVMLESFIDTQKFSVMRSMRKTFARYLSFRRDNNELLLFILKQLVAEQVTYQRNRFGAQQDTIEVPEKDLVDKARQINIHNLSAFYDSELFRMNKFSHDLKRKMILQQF
# T1 sequence (P25205 whole entry, further chain): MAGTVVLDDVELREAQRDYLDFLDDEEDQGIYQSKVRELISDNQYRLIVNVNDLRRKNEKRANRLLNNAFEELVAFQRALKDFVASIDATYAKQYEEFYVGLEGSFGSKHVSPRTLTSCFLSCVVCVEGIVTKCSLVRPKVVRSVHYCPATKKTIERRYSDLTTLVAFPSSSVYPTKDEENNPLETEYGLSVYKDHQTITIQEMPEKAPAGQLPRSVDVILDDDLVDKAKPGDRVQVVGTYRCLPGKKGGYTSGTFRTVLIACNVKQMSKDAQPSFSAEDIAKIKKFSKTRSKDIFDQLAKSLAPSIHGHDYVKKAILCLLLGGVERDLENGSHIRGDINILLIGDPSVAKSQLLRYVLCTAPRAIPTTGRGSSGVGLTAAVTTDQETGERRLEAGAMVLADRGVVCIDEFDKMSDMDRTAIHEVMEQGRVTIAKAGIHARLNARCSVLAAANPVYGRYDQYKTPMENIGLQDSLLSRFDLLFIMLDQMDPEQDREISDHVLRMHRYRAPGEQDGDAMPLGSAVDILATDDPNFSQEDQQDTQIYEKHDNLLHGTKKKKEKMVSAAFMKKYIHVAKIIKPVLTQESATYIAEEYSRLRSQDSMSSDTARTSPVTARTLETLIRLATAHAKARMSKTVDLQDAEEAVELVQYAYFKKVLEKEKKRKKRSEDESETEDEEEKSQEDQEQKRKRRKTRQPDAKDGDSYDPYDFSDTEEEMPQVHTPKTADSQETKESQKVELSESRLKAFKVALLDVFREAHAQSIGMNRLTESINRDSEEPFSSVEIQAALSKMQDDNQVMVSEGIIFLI
# T1 sequence (P33991 whole entry, further chain): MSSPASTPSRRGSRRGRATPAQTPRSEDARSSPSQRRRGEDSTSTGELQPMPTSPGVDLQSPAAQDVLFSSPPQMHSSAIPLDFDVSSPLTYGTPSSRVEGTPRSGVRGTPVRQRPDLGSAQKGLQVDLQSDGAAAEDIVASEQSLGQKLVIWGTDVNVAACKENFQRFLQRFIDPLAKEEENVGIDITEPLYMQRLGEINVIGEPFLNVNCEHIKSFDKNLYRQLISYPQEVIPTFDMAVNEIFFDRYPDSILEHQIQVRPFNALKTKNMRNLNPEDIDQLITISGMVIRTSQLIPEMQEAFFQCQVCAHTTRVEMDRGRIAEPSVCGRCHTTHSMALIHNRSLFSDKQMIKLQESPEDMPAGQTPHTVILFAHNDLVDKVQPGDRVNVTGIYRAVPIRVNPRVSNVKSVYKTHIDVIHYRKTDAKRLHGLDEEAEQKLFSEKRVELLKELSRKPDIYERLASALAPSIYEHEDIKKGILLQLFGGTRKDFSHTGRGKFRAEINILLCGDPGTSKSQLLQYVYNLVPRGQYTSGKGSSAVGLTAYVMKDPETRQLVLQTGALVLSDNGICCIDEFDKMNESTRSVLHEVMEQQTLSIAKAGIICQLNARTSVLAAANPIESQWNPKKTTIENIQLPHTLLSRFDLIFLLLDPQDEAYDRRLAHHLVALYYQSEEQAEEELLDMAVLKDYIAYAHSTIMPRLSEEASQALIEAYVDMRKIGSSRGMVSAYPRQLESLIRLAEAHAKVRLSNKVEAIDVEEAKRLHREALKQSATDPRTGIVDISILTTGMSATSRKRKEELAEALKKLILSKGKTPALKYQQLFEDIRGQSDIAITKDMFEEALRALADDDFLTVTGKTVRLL
# T1 sequence (P33992 whole entry, further chain): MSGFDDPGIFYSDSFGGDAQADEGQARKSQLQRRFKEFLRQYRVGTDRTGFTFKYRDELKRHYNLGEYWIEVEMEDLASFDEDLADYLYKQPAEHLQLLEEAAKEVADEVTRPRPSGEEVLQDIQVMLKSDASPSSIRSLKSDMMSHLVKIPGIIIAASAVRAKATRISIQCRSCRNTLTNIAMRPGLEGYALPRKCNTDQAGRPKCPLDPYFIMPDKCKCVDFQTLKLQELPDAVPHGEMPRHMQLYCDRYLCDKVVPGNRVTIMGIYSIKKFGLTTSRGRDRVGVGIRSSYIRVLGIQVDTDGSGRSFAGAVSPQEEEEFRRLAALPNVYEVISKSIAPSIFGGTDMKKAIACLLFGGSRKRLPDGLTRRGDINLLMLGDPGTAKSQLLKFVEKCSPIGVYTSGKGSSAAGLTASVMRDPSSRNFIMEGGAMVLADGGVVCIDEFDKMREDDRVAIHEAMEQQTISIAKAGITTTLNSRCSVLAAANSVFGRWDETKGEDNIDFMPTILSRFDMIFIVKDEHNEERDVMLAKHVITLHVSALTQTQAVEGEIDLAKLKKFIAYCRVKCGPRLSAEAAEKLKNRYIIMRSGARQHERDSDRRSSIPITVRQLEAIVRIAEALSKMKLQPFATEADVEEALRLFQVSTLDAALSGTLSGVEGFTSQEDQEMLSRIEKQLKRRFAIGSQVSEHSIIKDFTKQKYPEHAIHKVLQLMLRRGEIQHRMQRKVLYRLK
# T1 sequence (Q14566 whole entry, further chain): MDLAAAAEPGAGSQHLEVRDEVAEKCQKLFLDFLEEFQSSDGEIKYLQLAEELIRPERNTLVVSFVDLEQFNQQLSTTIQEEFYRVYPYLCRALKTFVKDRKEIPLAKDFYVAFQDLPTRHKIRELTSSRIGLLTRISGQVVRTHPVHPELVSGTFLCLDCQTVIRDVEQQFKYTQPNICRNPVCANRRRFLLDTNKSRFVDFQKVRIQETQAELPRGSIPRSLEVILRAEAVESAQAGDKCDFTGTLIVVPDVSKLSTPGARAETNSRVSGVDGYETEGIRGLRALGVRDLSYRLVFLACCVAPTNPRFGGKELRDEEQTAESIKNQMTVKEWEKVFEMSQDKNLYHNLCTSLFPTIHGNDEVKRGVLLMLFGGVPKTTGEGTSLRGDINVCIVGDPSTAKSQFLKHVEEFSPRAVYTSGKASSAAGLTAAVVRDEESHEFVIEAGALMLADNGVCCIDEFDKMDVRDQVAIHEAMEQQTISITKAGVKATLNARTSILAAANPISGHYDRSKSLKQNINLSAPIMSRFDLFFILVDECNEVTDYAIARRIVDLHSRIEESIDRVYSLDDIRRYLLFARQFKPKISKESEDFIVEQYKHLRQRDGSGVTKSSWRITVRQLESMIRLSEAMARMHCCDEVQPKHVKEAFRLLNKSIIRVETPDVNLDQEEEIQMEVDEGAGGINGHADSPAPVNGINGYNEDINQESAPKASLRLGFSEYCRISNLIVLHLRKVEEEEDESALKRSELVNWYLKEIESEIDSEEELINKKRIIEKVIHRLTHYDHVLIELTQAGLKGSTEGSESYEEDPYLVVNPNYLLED
# T1 sequence (P33993 whole entry, further chain): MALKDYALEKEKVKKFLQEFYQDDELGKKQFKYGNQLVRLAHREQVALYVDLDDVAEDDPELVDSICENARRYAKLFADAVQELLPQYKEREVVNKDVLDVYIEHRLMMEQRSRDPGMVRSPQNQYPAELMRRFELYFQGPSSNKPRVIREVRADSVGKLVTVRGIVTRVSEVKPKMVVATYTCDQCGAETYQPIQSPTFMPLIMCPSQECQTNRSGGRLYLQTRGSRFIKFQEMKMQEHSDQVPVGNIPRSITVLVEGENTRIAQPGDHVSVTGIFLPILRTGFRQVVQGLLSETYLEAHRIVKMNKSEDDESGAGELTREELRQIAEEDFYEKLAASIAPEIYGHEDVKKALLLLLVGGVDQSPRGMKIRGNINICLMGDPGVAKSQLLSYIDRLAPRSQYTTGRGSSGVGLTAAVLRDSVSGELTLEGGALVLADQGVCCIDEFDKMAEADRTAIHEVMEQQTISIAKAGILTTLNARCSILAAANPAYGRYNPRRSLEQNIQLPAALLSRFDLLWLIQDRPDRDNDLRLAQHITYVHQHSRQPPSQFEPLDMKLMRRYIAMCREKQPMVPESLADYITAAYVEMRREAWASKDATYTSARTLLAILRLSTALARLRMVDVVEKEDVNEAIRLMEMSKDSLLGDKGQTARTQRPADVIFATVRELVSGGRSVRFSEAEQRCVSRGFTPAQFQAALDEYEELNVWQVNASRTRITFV
# [3] = test system: T1, human CMG helicase (hCMG); experiment: hCMG helicase fork-unwinding (strand displacement) assay; format: biochemical
# Procedure: (§1) The human CMG helicase was purified following the established and validated protocol of Hurwitz and colleagues(19,20), with minor modifications. A detailed description of the approach is shown here, to allow for comparisons to the methods described by the Hurwitz group.
# (§2) High Five insect cells (2-3 million cells/ml, 1.5 L), were in cultured in a shaking incubator at 27° C. in suspension with ESF921 serum free medium (Expression Systems, CA; cat. #96-001-01), then co-infected for 60 hrs with 11 baculoviruses expressing human 6His2Flag-Cdc45, the human MCM hexamer (Mcm2, Mcm3, Mcm4, Mem5, Mcm6, Mcm7), and human GINS (GST-Sld5, Psf3, Psf2, and Psf1). Each virus was infected at an MOI of ~10 from individual virus stocks. Infected cells were harvested by centrifugation at 650×g for 5 min at 4° C., washed with cold PBS, frozen on dry ice, and stored at −80° C. until use. The cell pellet (~20 mL) was thawed on ice, resuspended in 45 ml Hypotonic Buffer [20 mM Hepes-NaOH (pH 7.5), 5 mM KCl, 1.5 mM MgCl2] with protease inhibitors (1 mM [COMPOUND LEFT OUT], 1 mM Benzamidine, 0.15 μM Aprotinin, 4 μM Leupeptin, and 1 μM Antipain), and kept on ice for 10 min before lysing by Dounce homogenization (tight fitting, 60 strokes). The cell extract was adjusted to 0.42 M potassium acetate and centrifuged at 43,000×g for 1 hr at 4° C. The cleared lysate was mixed with 0.75 ml glutathione beads (cat. #17-0756-05; GE Healthcare) pre-equilibrated with FEQ buffer [20 mM Hepes-NaOH (pH 7.5), 0.42 M potassium acetate, 5 mM KCl, 1.5 mM MgCl2] and incubated by rotation at 4° C. overnight. Following centrifugation at 290×g at 4° C., the bound glutathione beads were washed four times (15 min each wash) with 40 ml of FW buffer [20 mM Hepes-NaOH (pH 7.5), 0.42 M potassium acetate, 1 mM DTT, 1 mM EDTA, 0.01% NP40, 10% glycerol (vol/vol) with protease inhibitors as above] containing protease inhibitors (as above). Bound proteins were eluted at 4° C. three times (1 hr each elution) with 3.5 ml Q buffer [20 mM Hepes-NaOH (pH 7.5), 1 mM DTT, 1 mM EDTA, 0.01% NP40, 10% glycerol (vol/vol), and protease inhibitors as above] containing 0.15 M potassium acetate and 20 mM reduced glutathione. The eluted fractions were combined and applied to a HiTrap Q-Sepharose FF column (HiTrap Q FF 1 mL, cat. #17505301, Cytiva), pre-equilibrated 3× with 5 ml of Q buffer containing 0.15 M, 0.75 M, 0.15M potassium acetate, in sequence. The Q-Sepharose FF column was washed with 10 ml of FW buffer containing protease inhibitors (as above). The proteins were eluted with 10 ml of Q buffer containing 0.75 M potassium acetate. The eluted fraction was mixed with 0.15 ml of anti-Flag M2 affinity gel/beads and incubated while rotating at 4° C. overnight. After centrifugation at 290×g for 5 min at 4° C., the beads were washed three times with 10 ml PreScission buffer [50 mM Tris-HCl (pH 7.5), 0.15 M NaCl, 1 mM DTT, 1 mM EDTA] for 15 min at 4° C., and eluted at 4° C. three times (1 hr each elution) with 0.2 ml PreScission enzyme buffer containing 0.2 mg/ml 3×-Flag peptides. The combined eluates were incubated with 20 Units of PreScission Protease (GE Healthcare) and 0.1 mL glutathione beads for 4 hr at 4° C. The supernatant was layered onto a 15-40% glycerol gradient [25 mM Tris-HCl (pH 7.5), 50 mM NaCl, 1 mM DTT, 1 mM EDTA, 0.01% NP40, protease inhibitors as above] in a 5 mL ultra-centrifugation tube and centrifuged at 260,000×g for 14 hr at 4° C. Glycerol fractions (0.15 mL each fraction) were collected from bottom of tube and stored at −80° C. until use. Typically, fractions 6-9 contained complete hCMG (~750-800 kDa) and co-migrated with thyroglobulin.
# (§3) Helicase fork-unwinding assays were performed at 37° C. for 1 hr in 20 μL reaction volumes using 2-4 μl of hCMG (~15-30 fmol), in a buffer consisting of 25 mM Hepes-NaOH (pH 7.5), 5 mM NaCl, 0.5 mM ATP, 10 mM magnesium acetate, 1 mM DTT, 0.1 mg/ml bovine serum albumin (BSA), and ~10 fmol of radiolabeled DNA forks (20). […]
# [4] = test system: T1, human CMG helicase (hCMG); experiment: hCMG ATPase activity, FP ADP^2 Transcreener assay; format: biochemical; settings: primary FP ATPase assay
# Procedure: The fluorescent-polarization (FP) ADP-sensing assays were performed using the Transcreener® ADP^2 FP assay kit (cat #3010-1K, Bellbrook Labs). For hCMG inhibitor screening, assays were performed at 37° C. for 1 hr in 10 μl reactions in a 384-well plate (cat. #4514, Corning) using 2 μL of hCMG (~15 fmol), 25 mM Hepes-NaOH (pH 7.5), 10 mM NaCl, 0.5 mM ATP, 10 mM magnesium acetate, 1 mM DTT, 0.1 mg/ml BSA, and DNA fork substrates. […] Selected inhibitors or samples from a chemical library were added into the reactions when conducting the screening or testing inhibitor effectiveness. The NCI Diversity Set VI chemical library was obtained from the National Cancer Institute (Bethesda, MD).
# The window of sensitivity for the ADP-sensing assays is determined by setting up two 10 μL control samples without any added hCMG helicase: a Low-FP mixture (4 nM ADP Alexa Fluor-633 Tracer alone) and a High-FP mixture (4 nM ADP Alexa Fluor-633 Tracer plus patented anti-ADP^2 Antibody). The amount of ADP^2 Antibody used had to be adjusted to account for the use of 500 μM ATP in our hCMG assays, versus 10 μM ATP in enzyme reactions typically assessed with standard kits prepared by BellBrook Labs. […] This was done according to the manufacturer by performing a titration with increasing ADP^2 Antibody, fixed 4 nM ADP Alexa Fluor-633 Tracer, and 500 μM ATP to determine the ~EC80-85 for millipol (mP) changes, which determined the optimal ADP^2 Antibody concentration to use as 0.64 mg/ml (FIG. 9A). Samples are read with a Perkin Elmer Envision II plate reader with optimized Cy5 (far-red) FP-compatible mirror and cubes (cat #2100-8390, Perkin Elmer). The Low-FP sample is the least polarized and gives a low mP reading, while the High-FP sample is the most polarized and gives the highest mP reading. The difference between the Low-FP and High-FP values defines the FP assay window, which is normally in a range of 150-200 mP under ideal conditions for screening purposes. The hCMG helicase hydrolyzes ATP to ADP and decreases the mP reading within this window, with an ideal change (ΔmP) in the FP window of at least 50% to be in a readable range for inhibitor screening (as per manufacturer). Potential hCMG chemical inhibitors reverse this effect and cause the mP readings to increase.
# We performed a titration with increasing and decreasing concentrations of ADP and ATP, respectively, to assess the sensitivity of the FP assay in detecting ADP production (FIG. 9B). Consistent with the stated manufacturer predictions, the assay can reliably detect 1-3% changes in ADP production (i.e., 5-15 μM ADP production) in starting concentrations of ATP of 500 μM, with a Z′ efficiency between 0.6-0.8 (determined following manufacturer protocols).
# Once the hCMG enzyme reactions are complete, 10 μL of 1× Stop Solution and Detection Buffer (buffer from BellBrook Labs; containing 4 nM ADP Alexa Fluor-633 Tracer plus ADP^2 Antibody) are added to each reaction, and to the High-FP control. The Low-FP control receives 10 μL of 1× Stop Solution and Detection Buffer containing only 4 nM ADP Alexa Fluor-633 Tracer (no Antibody). Samples are incubated at 25° C. for 1 hr, then read in the plate reader. […] Plate readings from these tests of potential positive hits should be similar to that seen with the Low-FP control, or such hits may instead be false-positives.
# [5] = test system: solid tumor cell lines (NCI-60 set); settings: cited from earlier work
# [6] = test system: T2, Nc1ncnc2c1ncn2[C@@H]1O[C@H](COP(=O)(O)OP(=O)(O)OP(=O)(O)O)[C@@H](O)[C@H]1O; experiment: hCMG helicase fork-unwinding (strand displacement) assay; format: biochemical, human; settings: other: role: substrate
# T2 construct: made in house; host or cells: High Five insect cells, baculovirus (11 viruses co-infected)
# Procedure: as §1, §2, §3
compound,measurement,setting,value
O=C(NC1CCNCC1)c1[nH]ncc1NC(=O)c1c(Cl)cccc1Cl [AT7519],"phosphorylation of Cdk2 targets Rb, Cdc6 (S54P) and Cdk1 target PP1a",[1],blocks phosphorylation
Nc1ncnc2c1ncn2[C@@H]1O[C@H](COP(=O)(O)OP(=O)(O)OP(=O)(O)O)[C@@H](O)[C@H]1O [ATP],ATP hydrolysis rate of the human helicase,[2]; 500 μM ATP,−80 mol-ADP per minute per mol-hCMG
same,Km,"[2]; described by others, read-out: Km for hCMG ATP hydrolysis activity",625 µM
same,Vmax of the hCMG,"[3]; role: substrate, inhibitor CA1 2.5 μM present",without a change in the Vmax
same,Km,"[3]; role: substrate, no inhibitor, read-out: Km for ATP, fork-unwinding activity",690 µM
CO[C@@H]1[C@@H](OC(=O)c2ccc(C)[nH]2)[C@@H](O)[C@H](Oc2ccc3c(O)c(NC(=O)c4ccc(O)c(CC=C(C)C)c4)c(=O)oc3c2Cl)OC1(C)C [clorobiocin],inhibition of hCMG ATP hydrolysis,[4],effective nature of hCMG inhibition
same,growth suppression of solid tumor cell lines,[5],sensitive to similar low micromolar concentrations
same,hCMG helicase inhibition in secondary strand-displacement assay,[3]; 500 μM compound,effective hCMG helicase inhibitors
human CMG helicase (hCMG) (Homo sapiens),Km,[6]; inhibitor CA1 2.5 μM present,1550 µM
same,Km,[6]; no inhibitor,690 µM
